Experimental findings from US8754066B2, “Phenoxy derivatives as sphingosine 1-phosphate (S1P) receptor modulators” (Allergan, Inc., priority 2012, dated 2014) are described below.

The term EC50 denotes the concentration needed to bring the measured effect to its halfway point. Low readings indicate greater potency, high ones weaker potency.

The test deals with T1, human S1P1 receptor (Homo sapiens, UniProt P21453).
T1 construct: expressed in transfected cells; host or cells: unnamed cells stably expressing the receptor; membranes used
T1 sequence (P21453 whole entry): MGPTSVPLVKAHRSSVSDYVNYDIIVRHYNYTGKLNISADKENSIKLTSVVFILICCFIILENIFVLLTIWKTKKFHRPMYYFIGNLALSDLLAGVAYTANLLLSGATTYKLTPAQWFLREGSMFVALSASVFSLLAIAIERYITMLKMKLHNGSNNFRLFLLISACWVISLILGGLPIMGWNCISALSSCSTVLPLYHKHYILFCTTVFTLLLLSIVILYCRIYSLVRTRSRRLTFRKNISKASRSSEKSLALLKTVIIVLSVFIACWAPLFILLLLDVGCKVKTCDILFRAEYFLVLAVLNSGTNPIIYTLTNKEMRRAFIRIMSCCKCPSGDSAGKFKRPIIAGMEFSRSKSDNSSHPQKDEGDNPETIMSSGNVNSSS
Kind of test: GTP γ35S binding assay for S1P1 activity. The class given is biochemical. Conditions: activity potency from GTP γ35S binding; 5 μg membrane protein; test compounds 0.08 to 5,000 nM; 30 min at 25° C. The protocol:
Compounds were synthesized and tested for S1P1 activity using the GTP γ^35S binding assay. These compounds may be assessed for their ability to activate or block activation of the human S1P1 receptor in cells stably expressing the […] receptor.
GTP γ^35S binding was measured in the medium containing (mM) HEPES 25, pH 7.4, MgCl2 10, NaCl 100, dithitothreitol 0.5, digitonin 0.003%, 0.2 nM GTP γ^35S, and 5 μg membrane protein in a volume of 150 μl. Test compounds were included in the concentration range from 0.08 to 5,000 nM unless indicated otherwise. Membranes were incubated with 100 μM 5′-adenylylimmidodiphosphate for 30 min, and subsequently with 10 μM GDP for 10 min on ice. Drug solutions and membrane were mixed, and then reactions were initiated by adding GTP γ^35S and continued for 30 min at 25° C. Reaction mixtures were filtered over Whatman GF/B filters under vacuum, and washed three times with 3 mL of ice-cold buffer (HEPES 25, pH7.4, MgCl2 10 and NaCl 100). Filters were dried and mixed with scintillant, and counted for ^35S activity using a β-counter. Agonist-induced GTP γ^35S binding was obtained by subtracting that in the absence of agonist. Binding data were analyzed using a non-linear regression method. In case of antagonist assay, the reaction mixture contained 10 nM S1P in the presence of test antagonist at concentrations ranging from 0.08 to 5000 nM.
Activity potency: S1P1 receptor from GTP γ^35S: nM, (EC50),
Background: GTPγS is a poorly hydrolysed GTP analogue; its binding reports G protein activation.
`Cc1ccc(CC(CCCOc2ccc(CNCCC(=O)O)cc2)c2ccsc2)cc1C` (centres unmarked) [Compound 1, 3-[(4-{[5-(3,4-dimethylphenyl)-4-(3-thienyl)pentyl]oxy}benzyl)amino]propanoic acid] gave an EC50 of 14 nM.
The figure for `Cc1ccc(CC(CCCOc2ccc(CNCCC(=O)O)cc2)c2cccc(F)c2F)cc1C` (centres unmarked) [Compound 2, 3-[(4-{[4-(2,3-difluorophenyl)-5-(3,4-dimethylphenyl)pentyl]oxy}benzyl)amino]propanoic acid] is 0.85 nM; for `Cc1ccc(CC(CCCCOc2ccc(CNCCC(=O)O)cc2)c2cccc(Cl)c2)cc1C` (centres unmarked) [Compound 3, 3-[(4-{[5-(3-chlorophenyl)-6-(3,4-dimethylphenyl)hexyl]oxy}benzyl)amino]propanoic acid] it is 134 nM; for `Cc1ccc(CC(CCCOc2ccc(CNCCC(=O)O)cc2)c2cc(F)cc(F)c2)cc1C` (centres unmarked) [Compound 4, 3-[(4-{[4-(3,5-difluorophenyl)-5-(3,4-dimethylphenyl)pentyl]oxy}benzyl)amino]propanoic acid] it is 17.8 nM.
To `Cc1ccc(CC(CCCOc2ccc(CNCCC(=O)O)cc2)c2cccc(Cl)c2)cc1C` (centres unmarked) [Compound 5, 3-[(4-{[4-(3-chlorophenyl)-5-(3,4-dimethylphenyl)pentyl]oxy}benzyl)amino]propanoic acid] belongs 59.5 nM; to `Cc1ccc(CC(CCOc2ccc(CNCCC(=O)O)cc2)c2cccc(Cl)c2)cc1C` (centres unmarked) [Compound 6, 3-({4-[3-(3-chlorophenyl)-4-(3,4-dimethylphenyl)butoxy]benzyl}amino)propanoic acid], 96.9 nM; to `Cc1ccc(CC(CCCOc2ccc(CNCCCP(=O)(O)O)cc2)c2ccsc2)cc1C` (centres unmarked) [Compound 7], 2.08 nM.
The figure for `Cc1ccc(CC(CCCCOc2ccc(CNCCCP(=O)(O)O)cc2)c2cccc(Cl)c2)cc1C` (centres unmarked) [Compound 8, {3-[(4-{[5-(3-chlorophenyl)-6-(3,4-dimethylphenyl)hexyl]oxy}benzyl)amino]propyl}phosphonic acid] is 17.1 nM; for `Cc1ccc(CC(CCCOc2ccc(CNCCCP(=O)(O)O)cc2)c2cc(F)cc(F)c2)cc1C` (centres unmarked) [Compound 9, {3-[(4-{[4-(3,5-difluorophenyl)-5-(3,4-dimethylphenyl)pentyl]oxy}benzyl)amino]propyl}phosphonic acid] it is 0.01 nM.
As for `Cc1ccc(CC(CCCOc2ccc(CNCCCP(=O)(O)O)cc2)c2cccc(Cl)c2)cc1C` (centres unmarked) [Compound 10, {3-[(4-{[4-(3-chlorophenyl)-5-(3,4-dimethylphenyl)pentyl]oxy}benzyl)amino]propyl}phosphonic acid], a half-maximal response (EC50) required 0.23 nM.
Regarding `Cc1ccc(CC(CCOc2ccc(CNCCCP(=O)(O)O)cc2)c2cccc(Cl)c2)cc1C` (centres unmarked) [Compound 11, [3-({4-[3-(3-chlorophenyl)-4-(3,4-dimethylphenyl)butoxy]benzyl}amino)propyl]phosphonic acid], the EC50 came to 7.44 nM.
